Data taken from patent US20200270232A1, “INHIBITORS OF INTEGRATED STRESS RESPONSE PATHWAY” (Praxis Biotech LLC, priority 2019, published 2020).

How the values were obtained:
[1] = system: ATF4; assay: ATF4 expression inhibition assay (ATF4 luciferase reporter); type: cell-based; details: Homo sapiens, HEK-293T; HEK293T cells carrying the ATF4 luciferase reporter, 100 nM thapsigargin (Tg), 3 hours; read-out: ATF4 inhbition IC50
Experimental: The ATF4 reporter was prepared by fusing the human full length 5′UTR of ATF4 (NCBI Accession No. BC022088.2) upstream of the firefly luciferase coding sequence lacking the initiator methionine. The fused sequence was cloned into pLenti-EF1a-C-Myc-DDK-IRES-Puro cloning vector (Origen # PS 100085) using standard methods. Virus production was carried out by using Lenti-X™ Packaging Single Shots Protocol (Clonetech #631276). Viral particles were used to transduce HEK293T cells (ATCC # CRL-3216, ATCC Manassas, Va.), which were subsequently selected with puromycin to generate stable cell line. Cells were maintained at 37° C. and 5% CO2 in DMEM-F12 (Hyclone # SH30023.02) supplemented with 10% heat-inactivated fetal bovine serum (Gibco #16000-044), 2 mM L-glutamine (Gibco #25030-081), 100 U/ml penicillin, and 100 μg/ml streptomycin (Gibco #15140-122).
HEK293T cells carrying the ATF4 luciferase reporter were plated on 96-well plates (Nunc) at 10,000 cells per well. Cells were treated two days after seeding with 100 nM thapsigargin (Tg) (Sigma-Aldrich # T9033) in the presence of different concentrations of selected compounds ranging from 1 nM to 10 μM. Cells without treatment or cells treated with Tg alone were used as controls. Assay plates containing cells were incubated for 3 hours at 37° C.
Luciferase reactions were performed using Luciferase Assay System (Promega # E1501) as specified by the manufacturer. Luminescence was read with an integration time of 1 s and a gain of 110 using a Cytation-5 multi-mode microplate reader (BioTek). Relative luminescence units were normalized to Tg treatment (0% inhibition) and untreated cells (100% inhibition) and the percentage of ATF4 inhibition was calculated.
Accordingly, inhibition of ATF4 expression as a result of the test compound indicates suppression of the ISR pathway.

[2] = system: Chinese hamster ovary (CHO) cells; assay: Protein translation assay (puromycin labelling, western blot); type: cell-based; details: 2 hours, media alone = 100%; for activity at 1 µM: Cricetulus griseus, unstressed CHO cells (without Tg), 1 μM test compound, read-out: % Protein synthesis relative to untreated (1 μM test compound); for % Recovery of protein synthesis (1 μM test compound): stressed CHO cells, 300 nM Tg, Tg alone = 0%
Experimental: Chinese hamster ovary (CHO) cells were maintained at 37° C. and 5% C02 in Dulbecco's Modified Eagle's Media (DMEM) supplemented with 10% fetal bovine serum, 2 mM L-glutamine, 100 U/ml penicillin, and 100 μg/ml streptomycin. After reaching 80% of confluence, cells were detached and seeded on 6 well plates in complete media, allowed to recover overnight and treated for 2 hours with 1 μM of the test compound (to assess protein synthesis levels in unstressed condition), or for 2 hours with 300 nM Tg in the presence of 1 μM of the test compound (to assess the recovery of protein synthesis in a stressed condition). Cells with Tg alone were used as controls.
After the 2 hours treatments, media were replaced by adding 10 μg/ml puromycin (Sigma Aldrich # P8833) in complete media for 30 min. Media were removed and cells were lysed with SDS-PAGE lysis buffer. Lysates were transferred to 1.5 ml tubes and sonicated for 3 min and total protein amount were quantified using BCA Protein Assay Kit (Pierce). Equal amount of protein (30 μg) was loaded on SDS-PAGE gels. Proteins were transferred onto 0.2 μm PVDF membranes (BioRad) and probed with primary antibodies diluted in Tris-buffered saline supplemented with 0.1% Tween 20 (Merck # S6996184 505) and 3% bovine serum albumin (Rockland # BSA-50).
Puromycin (12D10) (Merck # MABE343) and β-actin (Sigma Aldrich # A5441) antibodies were used as primary antibody. A HRP-conjugated secondary antibody (Rockland) was employed to detect immune-reactive bands using enhanced chemiluminescence (ECL Western Blotting Substrate, Pierce). Quantification of protein bands was done by densitometry using ImageJ software.
Percent increase of protein synthesis in unstressed cells (without Tg treatment) in the presence of media alone or certain test compounds is shown in Table 3. The percentage levels were normalized to the media alone condition, which correspond to 100% protein synthesis.
Percent recovery of protein synthesis in stressed cells (with Tg treatment) due to the test compounds at 1 μM is also shown in Table 3. The levels were normalized to the media alone and Tg alone conditions, which correspond to 100% and 0% respectively.

Row | IC50 [1] | SMILES | activity at 1 µM [2] | % Recovery of protein synthesis (1 μM test compound) [2]
1 | > 100 nM | O=C(NC1CCN(CC(O)COc2ccc(Cl)c(F)c2)C1)c1cc2cc(Cl)ccc2o1 (stereo not drawn) [Compound 98, 5-chloro-N-(1-(3-(4-chloro-3-fluorophenoxy)-2-hydroxypropyl)pyrrolidin-3-yl)benzofuran-2-carboxamide] | 167% | 142.63%
2 | > 100 nM | O=C(COc1ccc(Cl)c(F)c1)NC1CCN(CC(O)COc2ccc(Cl)c(F)c2)C1 (stereo not drawn) [Compound 99, 2-(4-chloro-3-fluorophenoxy)-N-(1-(3-(4-chloro-3-fluorophenoxy)-2-hydroxypropyl)pyrrolidin-3-yl)acetamide] | 67.7% | 0.00%
3 | > 100 nM | O=C(COc1ccc(Cl)c(F)c1)NC1CCN(CCCOc2ccc(Cl)c(F)c2)C1 (stereo not drawn) [Compound 100, 2-(4-chloro-3-fluorophenoxy)-N-(1-(3-(4-chloro-3-fluorophenoxy)propyl)pyrrolidin-3-yl)acetamide] | 69.1% | 0.00%
4 | > 100 nM | O=C(NC1CCN(CCCOc2ccc(Cl)c(F)c2)C1)c1cc2cc(Cl)ccc2o1 (stereo not drawn) [Compound 101, 5-chloro-N-(1-(3-(4-chloro-3-fluorophenoxy)propyl)pyrrolidin-3-yl)benzofuran-2-carboxamide] | 93.2% | 86.10%
